This is an account of results in patent publication US7858349B2, “Anti-cancer compounds” (The Regents of the University of Colorado, priority 1999, dated 2010).

What is called IC50 is the concentration needed to halve the response being measured.

One experiment relates to SCLC strain SHP-77. Put plainly: MTT assay for cell survival, SCLC SHP-77 in vitro. In kind it is cell-based, human. To be noted: ED50 for killing of SCLC strain SHP-77 in vitro, 4 days, 0 = no detectable activity, read-out: SCLC SHP-77 IC50. In general terms: Formazan colour is commonly taken as a measure of viable cells.
In the case of `CC1(C)CC(NC(=O)C(Cc2ccc(OCc3c(Cl)cccc3Cl)cc2)NC(=O)C(c2ccc(Cl)cc2)c2ccc(Cl)cc2)CC(C)(C)N1` (stereo not shown) [Analog M-1754, Bcpa-OC2Y-Atmp], the IC50 is 1.5 µM. In the case of `CC1(C)CC(NC(=O)C(Cc2ccc(C#N)cc2)NC(=O)c2c(F)c(F)c(F)c(F)c2F)CC(C)(C)N1` (stereo not shown) [Analog M-1490, F5bz-PCNF-Atmp], the IC50 is greater than 60 µM.

Turning to `CC1(C)CC(NC(=O)C(Cc2ccc(-c3ccccc3)cc2)NC(=O)Cc2ccc(-c3ccccc3)cc2)CC(C)(C)N1` (stereo not shown) [Analog M-1796, Bipa-Bip-Atmp], the IC50 was 1.5 µM. Take `O=C([C@H](Cc1ccc(OCc2c(Cl)cccc2Cl)cc1)NC(=O)C12CC3CC(CC(C3)C1)C2)N1CCN(c2ncccn2)CC1` [Analog M-1680, Aca-OC2Y-Pmpz]: the IC50 came to 33 µM. Still for that read-out and setting: for `CC1(C)CC(NC(=O)C(Cc2ccc(F)cc2)NC(=O)C(=Cc2ccccc2)c2ccccc2)CC(C)(C)N1` (stereo not shown) [Analog M-1788, Pcn-PFF-Atmp] the value was 2.3 µM. Regarding `CCC(C(=O)NC(Cc1ccc(OCc2c(Cl)cccc2Cl)cc1)C(=O)NC1CC(C)(C)NC(C)(C)C1)C1CCCCC1` (stereo not shown) [Analog M-1746, Chbu-OC2Y-Atmp], the IC50 worked out at 1.6 µM.

Consider `CC1(C)CC(NC(=O)C(NC(=O)c2ccc(B(O)O)cc2)C2Cc3ccccc3C2)CC(C)(C)N1` (stereo not drawn) [Analog M-1374, Bbz-Igl-Atmp], for which the IC50 is greater than 60 µM. On the same count and under the same terms, the figure for `COC(=O)CN1C(C)CN(C(=O)C(Cc2ccc(F)cc2)NC(=O)C=Cc2c(F)c(F)c(F)c(F)c2F)CC1C` (stereo not shown) [Analog M-1432, F5c-PFF-Dmmp] is 18 µM. Same read-out and setting: for `CO[C@](C(=O)NC(Cc1ccc(OCc2c(Cl)cccc2Cl)cc1)C(=O)NC1CC(C)(C)NC(C)(C)C1)(c1ccccc1)C(F)(F)F` (stereo partly drawn) [Analog M-1750, (S)-MTPA-OC2Y-Atmp] the value was 4.2 µM. `CC1(C)CC(NC(=O)C(Cc2ccc(C#N)cc2)NC(=O)C=Cc2cc(F)cc(F)c2F)CC(C)(C)N1` (stereo not shown) [Analog M-1504, F3c-PCNF-Atmp]: the IC50 was greater than 60 µM.

Turning to `CC1(C)CC(NC(=O)C2Cc3ccccc3CN2C(=O)C(=Cc2ccccc2)c2ccccc2)CC(C)(C)N1` (stereo not drawn) [Analog M-1770, Pcn-Tic-Atmp], the IC50 was 5.4 µM. `O=C(c1ccccc1)c1ccc2n1CCC2C(=O)N[C@@H](Cc1ccc(OCc2c(Cl)cccc2Cl)cc1)C(=O)N1CCN(C/C=C/c2ccccc2)CC1` (stereo partly shown) [Analog M-1666, Ktlc-OC2Y-tCip]: the 50% inhibitory concentration (IC50) was greater than 60 µM. Take `CC1(C)CC(NC(=O)C(Cc2ccc(C(F)(F)F)cc2)NC(=O)C(=Cc2ccccc2)c2ccccc2)CC(C)(C)N1` (stereo not shown) [Analog M-1790, Pcn-F3MF-Atmp]: the IC50 came to 2.2 µM. The same measure, in the same setting: the figure for `CC1(C)CC(NC(=O)C(Cc2ccc(OCc3c(Cl)cccc3Cl)cc2)NC(=O)Cc2ccc(-c3ccccc3)cc2)CC(C)(C)N1` (stereo not shown) [Analog M-1782, Bipa-OC2Y-Atmp] is 3 µM; for `O=C(CC12CC3CC(CC(C3)C1)C2)N[C@@H](Cc1ccc(OCc2c(Cl)cccc2Cl)cc1)C(=O)N1CCN(c2ncccn2)CC1` [Analog M-1672, Aaa-OC2Y-Pmpz] it is greater than 50 µM. Still for that read-out and setting: the figure for `CN1CCN(CCCNC(=O)C(Cc2ccc(OCc3c(Cl)cccc3Cl)cc2)NC(=O)c2c3ccccc3nc3ccccc23)CC1` (stereo not shown) [Analog M-1700, Acrc-OC2Y-Amp] is 7.3 µM.

Turning to `CC1(C)CC(NC(=O)C(NC(=O)C(=Cc2ccccc2)c2ccccc2)C2Cc3ccccc3C2)CC(C)(C)N1` (stereo not drawn) [Analog M-1684, Pcn-Igl-Atmp], the IC50 worked out at 4.2 µM. In the case of `O=C(C=Cc1c(F)c(F)c(F)c(F)c1F)NC(Cc1c(F)c(F)c(F)c(F)c1F)C(=O)N1CCN(Cc2c(F)c(F)c(F)c(F)c2F)CC1` (stereo not shown) [Analog M-1730, F5c-F5F-Pipz(F5b)], the IC50 is 21 µM. The same measure, in the same setting: the figure for `CC1(C)CC(NC(=O)C(Cc2ccc(OCc3c(Cl)cccc3Cl)cc2)NC(=O)c2cccc3ccccc23)CC(C)(C)N1` (stereo not shown) [Analog M-1706, 1Nap-OC2Y-Atmp] is 4.2 µM.

On to `O=C(/C=C/c1c(F)c(F)c(F)c(F)c1F)N[C@@H](Cc1ccc(OCc2c(Cl)cccc2Cl)cc1)C(=O)N1CCN(C/C=C/c2ccccc2)CC1` [Analog M-1564, F5c-OC2Y-tCip], for which the IC50 was found to be 4 µM.

For `CC1(C)CC(NC(=O)C(Cc2ccc(OCc3c(Cl)cccc3Cl)cc2)NC(=O)c2cccnc2)CC(C)(C)N1` (stereo not shown) [Analog M-1704, Pyrc-OC2Y-Atmp], the IC50 is 25 µM. Same read-out and setting: for `O=C(/C=C/c1c(F)c(F)c(F)c(F)c1F)N[C@@H](Cc1ccc(OCc2c(Cl)cccc2Cl)cc1)C(=O)NCCCn1ccnc1` [Analog M-1642, F5c-OC2Y-Apia] the value was 42 µM. Still for that read-out and setting: for `Cc1nc2ccccc2c(C(=O)NC(Cc2ccc(OCc3c(Cl)cccc3Cl)cc2)C(=O)NC2CC(C)(C)NC(C)(C)C2)c1O` (stereo not shown) [Analog M-1716, Hmqc-OC2Y-Atmp] the value was 7.2 µM. Regarding `CC1(C)CC(NC(=O)[C@H](Cc2ccc(OCc3c(Cl)cccc3Cl)cc2)NC(=O)c2ccc(N)nc2)CC(C)(C)N1` [Analog M-1596, 6Ani-OC2Y-Atmp], the IC50 is greater than 60 µM. The same measure, in the same setting: for `CC1CN(C(=O)C(Cc2ccc(OCc3c(Cl)cccc3Cl)cc2)NC(=O)C2CCn3c(C(=O)c4ccccc4)ccc32)CC(C)N1Cc1ccccc1` (stereo not shown) [Analog M-1664, Ktlc-OC2Y-cDmbp] the value was greater than 60 µM.

Still in this experiment, the particulars now being: ED50 for killing of SCLC strain SHP-77 in vitro, 4 days, 0 = no detectable activity, read-out: SHP-77 In vitro IC50.
`O=C(C=Cc1c(F)c(F)c(F)c(F)c1F)NC(Cc1ccc(F)cc1)C(=O)N1CCN(c2ncccn2)CC1` (stereo not shown) [Analog M-1162, F5c-PFF-Pmpz]: the IC50 amounted to 15 µM.

On to `CC1(C)CC(NC(=O)C(Cc2ccc(C(F)(F)F)cc2)NC(=O)C=Cc2c(F)c(F)c(F)c(F)c2F)CC(C)(C)N1` (stereo not shown) [Analog M-1146, F5c-F3MF-Atmp], for which the IC50 turned out to be 12 µM. `CN1CCN(C(=O)C(Cc2ccc(F)cc2)NC(=O)C=Cc2c(F)c(F)c(F)c(F)c2F)CC1` (stereo not shown) [Analog M-1158, F5c-PFF-Mpz]: the IC50 was determined as 28 µM.

With `O=C(C=Cc1c(F)c(F)c(F)c(F)c1F)NC(Cc1ccc(I)cc1)C(=O)N1CCN(c2ccccn2)CC1` (stereo not shown) [Analog M-1248, F5c-PIF-Pypz], the IC50 was 13 µM. The same measure, in the same setting: for `CC1(C)CC(NC(=O)C(Cc2ccc(F)cc2)NC(=O)C=Cc2ccoc2)CC(C)(C)N1` (stereo not shown) [Analog M-1152, 3-Fa-PFF-Atmp] the value was greater than 60 µM; for `CC1(C)CC(NC(=O)C(Cc2ccc(I)cc2)NC(=O)C=Cc2c(F)c(F)c(F)c(F)c2F)CC(C)(C)N1` (stereo not shown) [Analog M-1142, F5c-PIF-Atmp], 7.2 µM. As for `CC1(C)CC(NC(=O)C(Cc2ccc(OCc3c(Cl)cccc3Cl)cc2)NC(=O)C(F)(F)C(F)(F)C(F)(F)C(=O)O)CC(C)(C)N1` (stereo not shown) [M-1098 #2, CHFB-OC2Y-Atmp], the IC50 is 6.8 µM. Consider `O=C(C=Cc1c(F)c(F)c(F)c(F)c1F)NC(Cc1ccc(F)cc1)C(=O)N1CCN(C(c2ccccc2)c2ccc(Cl)cc2)CC1` (stereo not shown) [Analog M-1202, F5c-PFF-Cbp], for which the IC50 is 30 µM. Turning to `O=C(C=Cc1c(F)c(F)c(F)c(F)c1F)NC(Cc1ccc(I)cc1)C(=O)N(Cc1ccccn1)Cc1ccccn1` (stereo not shown) [Analog M-1256, F5c-PIF-Dpic], the IC50 worked out at 13 µM.

For the molecule `CC1(C)CC(NC(=O)C(Cc2ccccc2)NC(=O)C=Cc2c(F)c(F)c(F)c(F)c2F)CC(C)(C)N1` (stereo not shown) [Analog M-1178, F5c-Phe-Atmp], the IC50 turned out to be 15 µM. On the same count and under the same terms, for `CN(C(=O)C=Cc1c(F)c(F)c(F)c(F)c1F)C(Cc1ccccc1)C(=O)NC1CC(C)(C)NC(C)(C)C1` (stereo not shown) [Analog M-1148, F5c-NMF-Atmp] the value was 15.5 µM; for `CC1(C)CC(NC(=O)C(CCc2ccccc2)NC(=O)C=Cc2c(F)c(F)c(F)c(F)c2F)CC(C)(C)N1` (stereo not shown) [Analog M-1176, F5c-hPhe-Atmp], 14 µM.
